We go through seven molecules from PubChem BioAssay (NCI).

Test systems include NCI/ADR-RES ovarian; OVCAR-3 ovarian; MDA-MB-231 breast; CCRF-CEM leukemia; ACHN renal; BT-549 breast; UACC-257 melanoma; A549 NSCLC; K-562 leukemia; SK-MEL-28 melanoma.
Test in all cases: growth of human tumour cells (NCI), 48 h

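Step 1: Grow cells in 96-well plates. Step 2: Expose to compound for 48 hours at 5 concentrations. Step 3: Interpolate endpoints linearly; if unreached, use highest concentration. Here, GI50 denotes the concentration required for 50% inhibition of growth. TGI: total growth inhibition.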

`Cn1c(=O)c(Oc2ccc(F)cc2F)cc2cnc(NCC(C)(C)O)nc21`: the GI50 in the assay on NCI/ADR-RES ovarian, with OVCAR-3 ovarian, with MDA-MB-231 breast, in the assay on CCRF-CEM leukemia, with ACHN renal and in the assay with BT-549 breast was over 25 µM in each case. Besides, the GI50 with UACC-257 melanoma, in the assay with A549 NSCLC, in the assay on K-562 leukemia and with SK-MEL-28 melanoma was over 25 µM in each case. The TGI in the assay on NCI/ADR-RES ovarian, in the assay with OVCAR-3 ovarian, in the assay on MDA-MB-231 breast, in the assay on CCRF-CEM leukemia, in the assay with ACHN renal and in the assay with BT-549 breast was over 25 µM each time. Besides, the TGI with UACC-257 melanoma, in the assay with A549 NSCLC, in the assay on K-562 leukemia and in the assay on SK-MEL-28 melanoma was over 25 µM throughout.

Regarding `COC(=O)c1c2c(c(C)[n+]([O-])c1C)C(=O)C(NCc1ccc(O)cc1)=CC2=O`, the GI50 in the assay on NCI/ADR-RES ovarian was 2.2 µM; in the assay with OVCAR-3 ovarian, 0.266 µM; in the assay on MDA-MB-231 breast, 1.38 µM; in the assay with CCRF-CEM leukemia, 1.6 µM; in the assay on ACHN renal it was 1.7 µM; with BT-549 breast it was 1.43 µM. For the same molecule, the GI50 is 0.556 µM in the assay with UACC-257 melanoma, 1.93 µM with A549 NSCLC, 1.63 µM in the assay on K-562 leukemia and 2.26 µM in the assay with SK-MEL-28 melanoma. Further, the TGI was found to be 6.37 µM in the assay with NCI/ADR-RES ovarian; 0.82 µM in the assay with OVCAR-3 ovarian; 4.34 µM in the assay on MDA-MB-231 breast; 4.35 µM with CCRF-CEM leukemia; 3.22 µM in the assay on ACHN renal; 2.91 µM with BT-549 breast. Besides, the TGI with UACC-257 melanoma was found to be 1.97 µM; in the assay on A549 NSCLC, 4.6 µM; with K-562 leukemia, 7.39 µM; in the assay on SK-MEL-28 melanoma it was 4.36 µM.

With `O=c1/c(=C\c2ccc(Br)cc2)sc2n1C(c1ccc(Br)cc1)C1=C(N=2)c2ccc3ccccc3c2OCC1` (stereo not given), the GI50 in the assay on NCI/ADR-RES ovarian, with OVCAR-3 ovarian, with MDA-MB-231 breast, in the assay on CCRF-CEM leukemia, in the assay on ACHN renal and with BT-549 breast was over 100 µM in each case. The GI50 with UACC-257 melanoma, in the assay on A549 NSCLC, in the assay on K-562 leukemia and with SK-MEL-28 melanoma was over 100 µM in each case. For the same molecule, the TGI in the assay on NCI/ADR-RES ovarian, with OVCAR-3 ovarian, in the assay with MDA-MB-231 breast, in the assay on CCRF-CEM leukemia, in the assay on ACHN renal and with BT-549 breast was over 100 µM throughout. Besides, the TGI with UACC-257 melanoma, in the assay with A549 NSCLC, in the assay with K-562 leukemia and with SK-MEL-28 melanoma was over 100 µM each time.

Consider `COc1c(B(O)O)cccc1-c1nc2c(F)cc3n[nH]c(C)c3c2c2c1CCCC2`, for which the GI50 in the assay with NCI/ADR-RES ovarian was 1.48 µM; in the assay on OVCAR-3 ovarian it was 1.48 µM; with MDA-MB-231 breast, 0.0412 µM; with CCRF-CEM leukemia, 0.373 µM; with ACHN renal, 0.534 µM; in the assay with BT-549 breast, 0.238 µM. Besides, the GI50 in the assay with UACC-257 melanoma was 2.08 µM; with A549 NSCLC it was 1.13 µM; in the assay with K-562 leukemia, 1.68 µM; in the assay with SK-MEL-28 melanoma, 2.1 µM. For the same molecule, the TGI was over 50 µM with NCI/ADR-RES ovarian; over 50 µM in the assay on OVCAR-3 ovarian; over 50 µM with MDA-MB-231 breast; over 50 µM in the assay on CCRF-CEM leukemia; over 50 µM in the assay with ACHN renal; 3.14 µM in the assay with BT-549 breast. The TGI was over 40.8 µM in the assay on UACC-257 melanoma, over 50 µM with A549 NSCLC, over 50 µM in the assay with K-562 leukemia and over 38.8 µM with SK-MEL-28 melanoma.

On to `CC(=O)ON=C1C=CC(=C(C#N)c2ccccc2)C=C1`, for which the GI50 is 0.768 µM with NCI/ADR-RES ovarian; 1.03 µM in the assay on OVCAR-3 ovarian; 2.63 µM with MDA-MB-231 breast; 0.387 µM in the assay with CCRF-CEM leukemia; 0.772 µM with ACHN renal; 3.9 µM with BT-549 breast. In addition, the GI50 in the assay with UACC-257 melanoma is 2.32 µM; in the assay on A549 NSCLC, 3.09 µM; in the assay with K-562 leukemia it was 0.556 µM; with SK-MEL-28 melanoma, 8.77 µM. The TGI was 4.21 µM in the assay with NCI/ADR-RES ovarian; 8.41 µM in the assay on OVCAR-3 ovarian; over 28.5 µM in the assay on MDA-MB-231 breast; over 100 µM in the assay on CCRF-CEM leukemia; 14.2 µM with ACHN renal; 12.5 µM in the assay on BT-549 breast. The TGI with UACC-257 melanoma is 18.3 µM; in the assay with A549 NSCLC it was over 36 µM; in the assay with K-562 leukemia, over 45 µM; with SK-MEL-28 melanoma, 61.4 µM.

For `Nc1n[nH]c2ccc([C@@H]3Nc4ccc5cn[nH]c5c4[C@H]4C5CCC(C5)[C@@H]34)cc12` (stereo not given in full), the GI50 in the assay on NCI/ADR-RES ovarian was 0.887 µM; with OVCAR-3 ovarian, 0.346 µM; in the assay with MDA-MB-231 breast, 0.874 µM; in the assay on CCRF-CEM leukemia it was 0.343 µM; in the assay with ACHN renal it was 0.797 µM; in the assay with BT-549 breast it was 0.755 µM. For the same molecule, the GI50 in the assay with UACC-257 melanoma is 12.5 µM; in the assay on A549 NSCLC it was 0.541 µM; in the assay with K-562 leukemia it was 0.252 µM; with SK-MEL-28 melanoma, 1.05 µM. Besides, the TGI with NCI/ADR-RES ovarian is over 24.1 µM; in the assay with OVCAR-3 ovarian, 10.9 µM; with MDA-MB-231 breast, over 53.4 µM; in the assay with CCRF-CEM leukemia, over 100 µM; with ACHN renal, over 91.9 µM; in the assay with BT-549 breast it was over 65.8 µM. In addition, the TGI in the assay with UACC-257 melanoma, with A549 NSCLC, in the assay with K-562 leukemia and with SK-MEL-28 melanoma was over 100 µM each time.

As to `O=C(Nc1cccc(-n2cc(-c3ccncc3)c(-c3ccc(Cl)c(O)c3)n2)c1)Nc1ccc(Cl)c(Cl)c1`, the GI50 in the assay with NCI/ADR-RES ovarian was 2.74 µM; with OVCAR-3 ovarian, 1.05 µM; with MDA-MB-231 breast, 1.18 µM; in the assay with CCRF-CEM leukemia, 1.03 µM; in the assay on ACHN renal, 1.04 µM; in the assay with BT-549 breast, 1.7 µM. The GI50 in the assay with UACC-257 melanoma was 0.93 µM; in the assay with A549 NSCLC, 1.01 µM; in the assay on K-562 leukemia, 1.41 µM; in the assay on SK-MEL-28 melanoma it was 1.46 µM. Further, the TGI in the assay with NCI/ADR-RES ovarian is over 32.5 µM; with OVCAR-3 ovarian it was 3.15 µM; in the assay with MDA-MB-231 breast, 8.33 µM; with CCRF-CEM leukemia, over 32.5 µM; with ACHN renal it was over 32.5 µM; in the assay on BT-549 breast, 16.1 µM. Moreover, the TGI in the assay with UACC-257 melanoma is 3.16 µM; in the assay on A549 NSCLC, over 32.5 µM; with K-562 leukemia, over 32.5 µM; in the assay with SK-MEL-28 melanoma it was 9.85 µM.
